Patent US10759816B2, “Heterocyclic compounds as RSV inhibitors” (Enanta Pharmaceuticals, Inc., priority 2016, dated 2020)

Each molecule was assayed on genotype A, "Long" strain RSV (assay: RSV-A in vitro cytoprotection assay in HEp-2 cells (ATPlite readout of cell viability)). Conditions: human respiratory syncytial virus, HEp-2, HEp-2 cells, genotype A “Long” strain RSV, cytoprotection; read-out: Human RSV-A (“Long” strain) EC50.
Type: cell-based, Human respiratory syncytial virus
Summary of the method: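 HEp-2 cells (8,000/well) given 2-fold compound dilutions in duplicate, then infected with RSV-A Long strain stock; viability read by ATPlite luminescence after 4 days. EC50 derived from cytoprotection; cytotoxicity measured on parallel uninfected plate.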

Structure (SMILES) | EC50 [nM]
Cc1cnc(N2CC3(CCOCC3)C2)c(NS(=O)(=O)c2ccc(C(=O)N3CCc4cc(C(=O)Nc5c(C)cccc5F)sc4-c4ccccc43)cc2)c1 [Example 133] | > 800
Cc1cccc(F)c1NC(=O)c1cc2c(s1)-c1ccccc1N(C(=O)c1cccc(-c3ccnn3C)n1)CC2 [Example 237] | < 400
COc1ccc2cc(CN(C)c3cccc(C(=O)N4CCc5cc(C(=O)Nc6c(C)cccc6F)sc5-c5ccccc54)n3)ccc2c1 [Example 356] | > 800
COC[C@H]1CCN1c1cccc(C(=O)N2CCc3cc(C(=O)Nc4c(C)cccc4F)sc3-c3ccccc32)n1 [Example 507] | < 400
O=C1CN(c2cccc(C(=O)N3CCc4cc(C(=O)NC5CC5)sc4-c4ccccc43)n2)CCN1 [Example 22] | 400 to 800
Cc1cccc(F)c1NC(=O)c1cc2c(s1)-c1cccc(F)c1N(C(=O)c1cccc(N3CCCOCC3)n1)CC2 [Example 503] | < 400
Cc1cccc(F)c1NC(=O)c1cc2c(s1)-c1ccccc1N(C(=O)c1cccc(NCCS(C)(=O)=O)n1)CC2 [Example 422] | > 800
COc1ccc(-c2cccc(C(=O)N3CCc4ccc(C(=O)NC5CC5)cc4-c4ccccc43)n2)cn1 [Example 105] | > 800
Cc1cccc(F)c1NC(=O)c1cc2c(s1)-c1ccccc1N(C(=O)c1cccc(N3CCNS(=O)(=O)CC3)n1)CC2 [Example 446] | < 400
O=C(Nc1cc2c(s1)-c1ccccc1N(C(=O)c1cccc(N3CCOc4ccccc4C3)n1)CC2)NS(=O)(=O)C1CC1 [Example 316] | > 800
COc1ccccc1[C@H](C)Nc1cccc(C(=O)N2CCc3cc(C(=O)NC4CC4)sc3-c3ccccc32)n1 [Example 292] | > 800
O=C(Nc1cc2c(s1)-c1ccccc1N(C(=O)c1cccc(N3CCOc4ccccc4C3)n1)CC2)c1ccccc1 [Example 313] | 400 to 800
Cc1ccncc1-c1cccc(C(=O)N2CCc3cc(C(=O)NC4CC4)sc3-c3ccccc32)n1 [Example 156] | > 800
Cc1cccc(F)c1NC(=O)c1cc2c(s1)-c1cccc(F)c1N(C(=O)c1cccc(N3CCOc4ccccc4C3)n1)CC2 [Example 504] | > 800
Cc1cccc(F)c1NC(=O)c1cc2c(o1)-c1ccccc1N(C(=O)c1ccc(NC(=O)c3cccnc3N3CC4(CCOCC4)C3)cc1)CC2 [Example 135] | < 400
Cc1cccc(F)c1NC(=O)c1cc2c(s1)-c1ccccc1N(C(=O)c1cccc(N3CC(S(C)(=O)=O)C3)n1)CC2 [Example 441] | > 800
Cc1cccc(F)c1NC(=O)c1cc2c(s1)-c1ccccc1N(C(=O)c1cccc(N(C)CC3Cc4ccccc4O3)n1)CC2 (stereo not drawn) [Example 117] | < 400
COc1ccccc1CNc1cccc(C(=O)N2CCc3cc(C(=O)NC4CC4)sc3-c3ccccc32)n1 [Example 287] | > 800
O=C(NC1CC1)c1cc2c(s1)-c1ccccc1N(C(=O)c1cccc(-c3cc(N4CCOCC4)ncc3F)n1)CC2 [Example 91] | 400 to 800
Cc1cccc(F)c1NC(=O)c1cc2c(s1)-c1ccccc1N(C(=O)c1cccc(-c3cn(CC(N)=O)nc3C3CC3)n1)CC2 [Example 230] | > 800
O=C(NC1CC1)c1cc2c(s1)-c1ccccc1N(C(=O)c1cccc(-c3nncn3CC3CCOCC3)n1)CC2 [Example 127] | > 800
O=C(NC1CC1)c1cc2c(s1)-c1ccccc1N(C(=O)c1cccc(N3CCC(c4ccccc4)CC3)n1)CC2 [Example 30] | > 800

Structure (SMILES) | EC50 [nM]
O=C(NC1CC1)c1cc2c(s1)-c1ccccc1N(C(=O)c1cccc(-c3ccc(F)nc3)n1)CC2 [Example 81] | 400 to 800
Cc1cccc(F)c1NC(=O)c1cc2c(s1)-c1ccccc1N(C(=O)c1cccc(N(C)Cc3cccc(-c4cccnc4)c3)n1)CC2 [Example 351] | > 800
COCCCNc1cccc(C(=O)N2CCc3cc(C(=O)NC4CC4)sc3-c3ccccc32)n1 [Example 35] | 400 to 800
Cc1cccc(F)c1NC(=O)c1cc2c(s1)-c1ccccc1N(C(=O)c1cccc(NCCO)n1)CC2 [Example 329] | > 800
COCCCN(C)c1cccc(C(=O)N2CCc3cc(C(=O)Nc4c(C)cccc4F)sc3-c3ccccc32)n1 [Example 334] | > 800
Cc1cccc(F)c1NC(=O)c1cc2c(s1)-c1ccccc1N(C(=O)c1cccc(N3CCOc4ccc(Br)cc4C3)n1)CC2 [Example 367] | < 400
CCS(=O)(=O)n1cc(-c2cccc(C(=O)N3CCc4cc(C(=O)Nc5c(C)cccc5F)sc4-c4ccccc43)n2)c(C2CC2)n1 [Example 220] | 400 to 800
O=C(NC1CC1)c1cc2c(s1)-c1ccccc1N(C(=O)c1ccc3nc(CN4CCOCC4)oc3c1)CC2 [Example 11] | > 800
CN1CC(NC(=O)c2cc3c(s2)-c2ccccc2N(C(=O)c2cccc(-c4c[nH]nc4C4CC4)n2)CC3)C1 [Example 183] | > 800
CN(Cc1cccnc1)c1cccc(C(=O)N2CCc3cc(C(=O)NC4CC4)sc3-c3ccccc32)n1 [Example 295] | > 800
Cc1cccc(F)c1NC(=O)c1cc2c(s1)-c1ccccc1N(C(=O)c1cccc(N3C[C@@H](NS(C)(=O)=O)C[C@@H]3C)n1)CC2 [Example 392] | 400 to 800
Cc1cccc(F)c1NC(=O)c1cc2c(s1)-c1ccccc1N(C(=O)c1cccc(-c3ccnn3C(C)C)n1)CC2 [Example 236] | < 400
O=C(N[C@H]1CCOC1)c1cc2c(s1)-c1ccccc1N(C(=O)c1cccc(N3CCOc4ccccc4C3)n1)CC2 [Example 310] | < 400
COCCNc1cccc(C(=O)N2CCc3cc(C(=O)NC4CC4)sc3-c3ccccc32)n1 [Example 33] | 400 to 800
O=C(NC1CC1)c1cc2c(s1)-c1ccccc1N(C(=O)c1cccc(-c3cn[nH]c3C3CC3)n1)CC2 [Example 164] | < 400
COCCN(c1cccc(C(=O)N2CCc3cc(C(=O)Nc4c(C)cccc4F)sc3-c3ccccc32)n1)S(C)(=O)=O [Example 423] | > 800
O=C(NC1CC1)c1cc2c(s1)-c1ccccc1N(C(=O)c1cc(N3CCCOCC3)ncn1)CC2 [Example 50] | > 800
COc1ccc(CN(C)c2cccc(C(=O)N3CCc4cc(C(=O)NC5CC5)sc4-c4ccccc43)n2)cc1 [Example 294] | > 800
COc1cccc(Oc2cccc(C(=O)N3CCc4cc(C(=O)NC5CC5)sc4-c4ccccc43)n2)c1 [Example 393] | > 800
COC[C@H]1CCCN1c1cccc(C(=O)N2CCc3cc(C(=O)Nc4c(C)cccc4F)sc3-c3ccc(F)cc32)n1 [Example 490] | < 400
O=C(NC1CC1)c1cc2c(s1)-c1ccccc1N(C(=O)c1cccc(N3CCOC[C@H]3c3ccccc3)n1)CC2 [Example 277] | > 800
Cc1cccc(F)c1NC(=O)c1cc2c(s1)-c1ccc(F)cc1N(C(=O)c1cccc(-c3c[nH]c4ncccc34)n1)CC2 [Example 173] | < 400

Structure (SMILES) | EC50 [nM]
CNC(=O)c1ccc(-c2cccc(C(=O)N3CCc4cc(C(=O)NC5CC5)sc4-c4ccccc43)n2)cn1 [Example 83] | 400 to 800
Cc1cccc(F)c1NC(=O)c1cc2c(s1)-c1ccccc1N(C(=O)c1cccc(-c3c[nH]nc3C(F)(F)F)n1)CC2 [Example 210] | < 400
CC1CN(c2cccc(C(=O)N3CCc4cc(C(=O)NC5CC5)sc4-c4ccccc43)n2)CC(C)O1 (stereo not drawn) [Example 24] | 400 to 800
O=C(NC1CC1)c1cc2c(s1)-c1ccccc1N(C(=O)c1cccc(-c3cncc(N4CCOCC4)c3)n1)CC2 [Example 157] | 400 to 800
O=C(NC1CCC1)c1cc2c(s1)-c1ccccc1N(C(=O)c1cccc(-c3c[nH]nc3C3CC3)n1)CC2 [Example 178] | < 400
Cc1cccc(F)c1NC(=O)c1cc2c(s1)-c1ccccc1N(C(=O)c1cccc(N3CCCN(C(=O)C4CC4)CC3)n1)CC2 [Example 388] | < 400
O=C(Nc1cc2c(s1)-c1ccccc1N(C(=O)c1cccc(N3CCOc4ccccc4C3)n1)CC2)NS(=O)(=O)c1ccccc1 [Example 315] | > 800
O=C(NC1CC1)c1ccc2c(c1)CCN(C(=O)c1cccc(N3CCOc4ccccc4C3)n1)c1ccccc1-2 [Example 397] | > 800
Cc1cccc(F)c1NC(=O)c1cc2c(s1)-c1ccccc1N(C(=O)c1cccc(N3CCOC4(CCCC4)C3)n1)CC2 [Example 416] | < 400
Cc1cccc(F)c1NC(=O)c1cc2c(s1)-c1ccccc1N(C(=O)c1cccc(-c3cnc(C4CC4)n3C3CC3)n1)CC2 [Example 200] | < 400
Cc1cccc(F)c1NC(=O)c1cc2c(s1)-c1ccccc1N(C(=O)c1cccc(N(C)CC3CCCO3)n1)CC2 (stereo not drawn) [Example 461] | < 400
COC[C@H]1CCCN1c1cccc(C(=O)N2CCc3cc(C(=O)Nc4c(C)cccc4F)sc3-c3ccc(C)cc32)n1 [Example 499] | < 400
O=C(N[C@H]1CCOC1)c1cc2c(s1)-c1ccccc1N(C(=O)c1cccc(-c3c[nH]nc3C3CC3)n1)CC2 [Example 177] | < 400
CN(C)c1ccc(-c2cccc(C(=O)N3CCc4cc(C(=O)NC5CC5)sc4-c4ccccc43)n2)cn1 [Example 82] | > 800
CN1Cc2cccc(Nc3cccc(C(=O)N4CCc5cc(C(=O)NC6CC6)sc5-c5ccccc54)n3)c2C1=O [Example 412] | > 800
O=C(NC1CC1)c1cc2c(s1)-c1ccccc1N(C(=O)c1cccc(-c3ccc(N4CCCC4)nc3)n1)CC2 [Example 80] | > 800
Cc1cccc(F)c1NC(=O)c1cc2c(s1)-c1ccccc1N(C(=O)c1cccc(N(C)Cc3cccnc3)n1)CC2 [Example 338] | < 400
CC(=O)c1ccc(-c2cccc(C(=O)N3CCc4cc(C(=O)NC5CC5)sc4-c4ccccc43)n2)cc1 [Example 63] | 400 to 800
Cc1cccc(F)c1NC(=O)c1cc2c(s1)-c1ccccc1N(C(=O)c1cccc(N3C[C@H](O)C[C@@H]3C)n1)CC2 [Example 480] | < 400
Cc1cccc(F)c1NC(=O)c1cc2c(s1)-c1ccccc1N(C(=O)c1cccc(N(C)C3CCS(=O)(=O)CC3)n1)CC2 [Example 455] | > 800
Cc1cccc(F)c1NC(=O)c1cc2c(s1)-c1ccccc1N(C(=O)c1cccc(-c3cncn3C3(C)CC3)n1)CC2 [Example 201] | > 800
COCCNC(=O)c1cc2c(s1)-c1ccccc1N(C(=O)c1cccc(N3CCCOCC3)n1)CC2 [Example 101] | < 400
